Data published in publication PMC8347709 (International Journal of Molecular Sciences, 2021).
Where “and” joins values, the source holds several entries; their conditions need not be identical. Equal entries are not always repeated.

Columns and labels:
[1] = molecular target: T1, CB2R in rat spleen tissue (Rattus norvegicus, UniProt Q9QZN9); assay: in vitro autoradiography on rat spleen cryosections; conditions: 10 µm cryosections, female SPRD rats; nonspecific binding with GW405833
T1 construct: from tissue; host or cells: rat spleen cryosections (female SPRD rat)
T1 sequence (Q9QZN9 1-360): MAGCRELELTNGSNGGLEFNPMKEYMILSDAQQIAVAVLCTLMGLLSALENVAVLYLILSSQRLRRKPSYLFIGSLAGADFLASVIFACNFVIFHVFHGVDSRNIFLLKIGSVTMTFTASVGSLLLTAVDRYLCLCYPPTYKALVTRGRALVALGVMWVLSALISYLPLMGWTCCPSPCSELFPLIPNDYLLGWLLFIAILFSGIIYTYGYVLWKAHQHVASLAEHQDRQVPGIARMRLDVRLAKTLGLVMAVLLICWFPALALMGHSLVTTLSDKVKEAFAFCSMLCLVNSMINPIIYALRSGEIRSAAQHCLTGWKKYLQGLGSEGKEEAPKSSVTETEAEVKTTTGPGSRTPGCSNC
Procedure: The in vitro autoradiographic experiments were performed according to a previously published protocol. […] Afterwards, the samples were washed, exposed to imaging plates (Fuji Photo Film, Co. Ltd., Tokyo, Japan), and eventually scanned using a HD-CR 35 scanner (raytest Isotopenmessgeraete GmbH, Straubenhardt, Germany). The scan data were visualised and processed by computer-assisted microdensitometry (Aida version 2.31, raytest Isotopenmessgeräte GmbH, Straubenhardt, Germany).
Figure S1. […] Cryosections (10 µm;
(nonspecific binding; (B) for 60 min. […]

[2] = quantification of radiometabolites in vivo; conditions: female CD-1 mice, 30 min p.i.
Procedure: Radiochemical yield, radiochemical purity and analyses of plasma and brain samples were assessed via reversed-phase HPLC (RP-HPLC) in gradient mode (0–10 min: 10% MeCN/20 mM NH4OAcaq., 10–30 min: 10%→90% MeCN/20 mM NH4OAcaq., 30–35 min: 90% MeCN/20 mM NH4OAcaq., 35–36 min: 90%→10% MeCN/20 mM NH4OAcaq. 36–45 min: 10% MeCN/20 mM NH4OAcaq.).
At 30 min p.i., the animals were anaesthetised and blood was withdrawn by retrobulbar bleeding using glass capillaries. Immediately afterwards, the animals were euthanised by cervical dislocation, and released urine was sampled. Blood plasma was obtained from the whole blood sample by centrifugation (2 min, 8000 rpm, room temperature). In addition, the brain and spleen were isolated and homogenised in 1 mL demineralised water on ice (1000 rpm, 10 strokes; glass vessel, PTFE plunger; Potter S, B. Braun Biotech International, Göttingen, Germany).
The samples were further processed for subsequent radio-chromatographic analyses. Two consecutive extractions were performed as duplicates for plasma and brain determinations. Plasma, brain and spleen samples were added to an ice-cold MeOH/H2O mixture (9:1, v/v). The samples were vortexed for 3 min, incubated on ice for 5 min and centrifuged at 10,000 rpm for 5 min. Supernatants were collected, and the precipitates were re-dissolved in 100 µL of extraction solvent, and the extraction procedure was repeated. The activities of supernatants and precipitates were measured in a γ-counter (1480 WIZARD, Fa. Perkin Elmer, Turku, Finland), and the extraction efficiencies were calculated as the ratio of radioactivity in the supernatant to the radioactivity in the original sample (supernatant + precipitate). The supernatants from both extractions were combined, concentrated at 70 °C under argon stream up to a remaining volume of 100 µL, and subsequently analysed by analytical radio-HPLC with a gradient system (see quality control section).

hCB2R = hCB2R (Homo sapiens, UniProt P34972); assay: homologous competition with [18F]LU14 on hCB2R-CHO cell membrane homogenates; assay type: binding; set-up: host or cells: CHO cells, stably transfected
Procedure: A value of 2.9 nM was experimentally determined. Next, the in vitro evaluation by autoradiography on spleen tissue was performed (Supplementary Figure S1), as the spleen is regarded as a suitable reference organ, having high densities of CB2R (rat spleen CB2R Bmax = 0.71 pmol/mg).
The inhibition curve was obtained by non-linear regression of percent specific binding (mean ±SD; one experiment run in triplicate) plotted versus the log concentration of the test compound.

Chain of hCB2R (P34972 whole entry): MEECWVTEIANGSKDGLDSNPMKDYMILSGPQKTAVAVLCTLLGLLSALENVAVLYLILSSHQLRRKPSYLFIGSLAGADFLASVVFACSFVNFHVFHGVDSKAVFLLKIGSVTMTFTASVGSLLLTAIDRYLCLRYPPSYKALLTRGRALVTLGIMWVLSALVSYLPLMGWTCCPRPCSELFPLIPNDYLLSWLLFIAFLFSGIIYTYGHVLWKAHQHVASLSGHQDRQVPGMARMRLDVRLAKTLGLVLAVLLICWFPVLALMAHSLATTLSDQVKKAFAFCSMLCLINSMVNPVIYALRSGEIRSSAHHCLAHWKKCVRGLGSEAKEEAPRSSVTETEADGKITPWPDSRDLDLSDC

## C[C@H]1CC[C@@H](NC(=O)c2cc3cccnc3n(CCCC[18F])c2=O)CC1 [[^18F]LU14]
[1]
  specific binding in spleen autoradiography: no or low specific binding
[2]
  intact tracer in spleen (of the total activity detected): 50 ± 10%
  intact tracer in the brain: 82 ± 5% and > 80% and 82%
[2]; radio-HPLC
  unchanged tracer in plasma: 17 ± 2% and 17%
hCB2R
  Kd: 2.9 nM
